pIC50: −log10 of the molar value. Where two headings read alike, the source gives them in different places.
Test system: SKBR3
Test: Cell viability (CellTiter-Blue, 72 h), SKBR3 breast cancer cells
Assay type: cell-based
Conditions: for pIC50: Homo sapiens; for effect (but only 50% effect): extent of effect reached
Experimental: The cell lines tested in this Example were as follows. Breast cancer: MDA-MB-231; SK-BR3; and BT474. Liver cancer: HepG2.
The phytocannabinoids were tested alone and in various ratioed combinations in media containing final concentrations of 10% and 1% foetal bovine serum at 72 h for the breast and prostate cancer lines and 1% foetal bovine serum for the liver cancer line HepG2.
Each tumour cell line was maintained in vitro in RPMI 1640+10% heat inactivated FBS and 2 mM L-glutamine (growth media) at 37° C. in 5% CO2 and humidified conditions. The cells were harvested, washed, re-suspended into growth medium and counted. The cells were re-suspended into assay media (RPMI 1640+5% heat inactivated FBS+ and 2 mM L-glutamine) at 8×104-2×10^5 cells/ml (dependent upon cell type) and plated into the middle 240 wells of 384 well tissue culture plates (Corning CellBind, black-wall plates) 12.5 μl/well aliquots; 62.5 μl of growth media was aliquoted into the outer wells. There were 4 plates for each cell line. The plates were incubated overnight at 37° C., in 5% humidified CO2.
The phytocannabinoid test compounds were prepared in 100% DMSO vehicle at a stock concentration of 10 mM.
Starting with the 10 mM stock, the compounds were diluted to 125 μM in FBS-free growth media.
These were diluted in FBS-free growth media to 125 μM before serial dilution.
5 volumes of CBD 10 mM stock was added to 1 volume of the other agent (also at 10 mM) and 4 volumes of DMSO. This made a final concentration of 5 mM:1 mM. This was then diluted in FBS-free growth media so the top concentration of CBD would be 125 μM (before serial dilution). Each compound and compound combination stock was serially diluted in FBS-free growth media (containing 1.25% v/v DMSO) from 125 μM to 41.7, 13.89, 4.63, 1.54, 0.514, 0.171, 0.057 and 0.019 μM (1.25× final assay concentrations). Vehicle was prepared at equivalent dilutions in assay media. The top final concentration of compound in the assay was always 100 μM so CBD5:1CBG was 100 μM CBD and 20 μM CBG.
Taxotere SOC was prepared at a stock concentration of 1 mM in 100% DMSO. Taxotere was serially diluted from the stock solution into FBS-free growth media to 12.5 μM, then serially diluted in FBS-free growth media containing 1.25% DMSO to 4.17, 1.39, 0.46, 0.154, 0.051, 0.017, 0.006, 0.002 μM (1.25× final assay concentrations).
This was then serially diluted in FBS-free growth media to 0.417, 0.139, 0.046, 0.0154, 0.0051, 0.0017, 0.0006, 0.0002 μM (1.25× final assay concentrations). This was plated as a positive control for the SKBR3 & BT474 cell lines. 50 μl per well of compound/vehicle dilutions was added to the plates in replicates of 6. Where applicable total volume in the well was made up to 62.5 μl with assay media.
The plates were incubated for 72 h at 37° C. in 5% humidified CO2. To develop the plates, at 72 h, 10 μl of CellTiter-Blue™ reagent was added to each test/blank well. The plates were incubated at 37° C., 5% humidified CO2. Fluorescence was measured using a Flex II Station plate reader (570 nm excitation wavelength, 600 nm emission wavelength, 590 nm cut-off) after 3 h.
The experimental conditions were the same as the experiment above, with the same compound dilutions and volumes for plating but using growth media containing 10% FBS rather than FBS-free media.
The raw data values expressed in relative fluorescent units were normalised to the vehicle for each individual plate and any reduction in fluorescence indicated a decrease in viability.
The data were analysed in GraphPad PRISM using a non-linear sigmoidal plot with variable slope (asymmetric five point linear regression) and where possible an IC50 value for each single compound and combination was generated.
For the calculation, raw data values expressed in relative fluorescent units were normalised to the vehicle for each individual plate (set as 0%) and the reduction in fluorescence calculated as an increase in inhibition of viability.

[1] = SK-BR-3, 72 h, read-out: IC50 values, SKBR3, 1% FBS, 72 h
[2] = SK-BR-3, 72 h, read-out: IC50 values, SKBR3, 10% FBS, 72 h
[3] = SK-BR-3, read-out: Dm (median effect dose), SKBR3, 1% FBS, Calcusyn median-effect analysis

SMILES	pIC50 [1]	pIC50 [2]	pIC50 [3]	effect (but only 50% effect) (SKBR3, 1% FBS)	effect (but only 50% effect) (SKBR3, 10% FBS) [% effect)]
C=C(C)[C@@H]1CCC(C)=C[C@H]1c1c(O)cc(CCCCC)cc1O [CBD, Cannabidiol]	5.40	4.64	5.03		
C=C(C)[C@@H]1CCC(C)=C[C@H]1c1c(O)cc(CCCCC)c(C(=O)O)c1O [CBDA, Cannabidiolic acid]	4.84	~4.00	4.52		
CCCCCc1cc(O)c(C/C=C(\C)CCC=C(C)C)c(O)c1 [CBG, Cannabigerol]	5.40	4.48	5.07		
CCCCCc1cc(O)c(C/C=C(\C)CCC=C(C)C)c(O)c1C(=O)O [CBGA, Cannabigerolic acid]	4.97	< 4.00	4.77		
CCCc1cc(O)c2c(c1)OC(C)(C)[C@@H]1CCC(C)=C[C@@H]21 [THCV, Tetrahydrocannabivarin]	4.97	4.52	4.74		
CC(=O)O[C@@]12CO[C@@H]1C[C@H](O)[C@@]1(C)C(=O)[C@H](O)C3=C(C)[C@@H](OC(=O)[C@H](O)[C@@H](NC(=O)OC(C)(C)C)c4ccccc4)C[C@@](O)([C@@H](OC(=O)c4ccccc4)[C@H]21)C3(C)C [Taxotere, Docetaxel, reference compound]	> 9.00	> 9.00		only 50%	50
